This is an account of results in ChEMBL document CHEMBL5532708, “Tetrahydroxanthene-1,3(2H)-diones and Oxidized Hexadiene Derivatives from Uvaria leptopoda and Their Biological Activities” (J Nat Prod, 2024).

Data set [1] in a line: Cytotoxicity against human Lu1 cells assessed as inhibition of cell growth incubated for 72 hrs by SRB assay. The class given is functional, cell-based. Particulars: Lu1, 72 h. On the technique in general: In SRB staining, fixed cells bind dye roughly in proportion to their protein.
Data set [2] in a line: Cytotoxicity against mouse RAW264.7 cells assessed as cell viability at 15 uM incubated for 24 hrs by MTT assay relative to control. The class given is toxicity, cell-based. The following applies: read-out: Activity. In general terms: Formazan colour is commonly taken as a measure of viable cells.
For data set [3], the system named is RAW264.7. Description: Antiinflammatory activity in mouse RAW264.7 cells assessed as inhibition of LPS-induced NO production at 15 uM incubated for 24 hrs by Griess reagent based analysis relative to control. The class given is functional. Also noted: scale not given: the % may be the effect or the level left. On the technique in general: Nitrite, measured by Griess reagent, commonly stands in for NO production.

The subject of the next data set is SNU1. Description: Cytotoxicity against human SNU1 cells assessed as reduction in cell viability incubated for 24 hrs by MTT assay. Particulars: SNU1, 24 h. The class given is functional, cell-based.
The subject of another data set is Plasmodium falciparum. Description: Antiplasmodial activity against multidrug resistant Plasmodium falciparum K1 assessed as reduction in parasite growth by [3H]-hypoxanthine incorporation assay. The class given is functional, organism-based.
Another data set deals with KB. Briefly: Cytotoxicity against human KB cells by SRB assay. The class given is functional, cell-based.
The subject of data set [4] is RAW264.7. Briefly: Antiinflammatory activity in mouse RAW264.7 cells assessed as inhibition of LPS-induced NO production incubated for 24 hrs by Griess reagent based analysis. The class given is functional, cell-based. Particulars: RAW264.7, 24 h.

Values after ≈ are worked out from the molar mass of the structure shown.

What is called IC50 is the concentration that inhibits the measured activity by half.

`CC(C)[C@@H](C)/C=C/[C@@H](C)[C@H]1CCC2=C3C=CC4=CC(=O)CC[C@]4(C)[C@H]3CC[C@@]21C`: the IC50 in data set [1] was found to be 10.2 µg/mL (≈ 26 µM).

For the compound `COc1cc(OC)c(C(=O)/C=C/c2ccccc2)c(O)c1OC`, in data set [2], the viability at 24 h, 15 µM is > 90%. Further, the Activity in the data set with RAW264.7 [3] is -11%. In addition, the 50% inhibitory concentration (IC50) in the data set on SNU1 amounted to 11 µM.

Take `COc1cc(OC)c([C@@H]2Oc3c(OC)c(OC)cc(OC)c3[C@@H](/C=C/c3ccccc3)[C@H]2C(=O)c2ccccc2)c(O)c1OC`: in the data set on Plasmodium falciparum, the IC50 came out at 3.02 µg/mL (≈ 4.93 µM).

Consider `COc1ccc2c(c1)C[C@]1(OC)C(=O)/C(=C(/O)[C@H]3[C@H](c4ccccc4)[C@H](/C(O)=C4/C(=O)C[C@@]5(OC)Oc6ccc(OC)cc6C[C@@]5(OC)C4=O)[C@H]3c3ccccc3)C(=O)C[C@]1(OC)O2`, for which the viability at 24 h, 15 µM in data set [2] was > 90%. In the data set with RAW264.7 [3], the Activity worked out at 6.5%. For the same compound, the IC50 with SNU1 stood at 18 µM.

As to `CC(=O)OC[C@@](O)(COC(=O)c1ccccc1)[C@@H](O)/C=C\COC(=O)c1ccccc1`, in data set [2], the viability at 24 h, 15 µM is > 90%. For the same compound, in the data set with RAW264.7 [3], the Activity was determined as 14%. Also, the half-maximal inhibitory concentration (IC50) in the data set on SNU1 is 82 µM.

With `COc1ccc2c(c1)C[C@H]1[C@@H](OC(=O)c3ccccc3)[C@H](OC(C)=O)C(COC(=O)c3ccccc3)=C[C@H]1O2`, the viability at 24 h, 15 µM in data set [2] was > 90%. The Activity with RAW264.7 [3] is reported as 15%. In addition, the half-inhibitory concentration (IC50) in the data set with SNU1 was 130 µM.

In the data set on KB, `COc1cc2cc(-c3ccc(O)cc3)ccc2cc1O` had a half-inhibitory concentration (IC50) of 5.05 µM.

For `CC(=O)OC[C@@]1(COC(=O)c2ccccc2)O[C@H]1/C=C\COC(=O)c1ccccc1`, the viability at 24 h, 15 µM in data set [2] was > 90%. Also, the Activity in the data set on RAW264.7 [3] is given as 12%. Besides, the IC50 in the data set with SNU1 was found to be 37 µM.

`O=C1c2cc(O)ccc2-c2c3c(cc4ccnc1c24)OCO3`: the IC50 in data set [1] was 9.22 µg/mL (≈ 31.7 µM).

Turning to `COc1ccc2c(c1)C[C@]1(OC)C(=O)/C(=C(O)\C=C\c3ccccc3)C(=O)C[C@]1(OC)O2` (racemic), the viability at 24 h, 15 µM in data set [2] was > 90%. Also, the IC50 with RAW264.7 [4] worked out at 6.7 µM; in the data set with SNU1 it was 34 µM. Further, the Activity in the data set with RAW264.7 [3] was determined as 73%.

Consider `O=C(O)Cc1ccccc1Nc1c(Cl)cccc1Cl` [DICLOFENAC SODIUM], for which the half-inhibitory concentration (IC50) with RAW264.7 [4] stood at 331 µM.
